Assays:
[1] = target: Calcium/calmodulin-dependent protein kinase type II subunit delta (Homo sapiens) (UniProt Q13557)
[2] = target: Serine/threonine-protein kinase 26 (Homo sapiens) (UniProt Q9P289)
[3] = target: Glycogen synthase kinase-3 beta (Homo sapiens, UniProt P49841)
[4] = target: Serine/threonine-protein kinase 10 (Homo sapiens) (UniProt O94804)
[5] = target: Serine/threonine-protein kinase pim-1 (Homo sapiens) (UniProt P11309)
[6] = target: TRAF2 and NCK-interacting protein kinase (Homo sapiens) (UniProt Q9UKE5)
Sequence of TRAF2 and NCK-interacting protein kinase (Homo sapiens) (Q9UKE5 whole entry, looked up): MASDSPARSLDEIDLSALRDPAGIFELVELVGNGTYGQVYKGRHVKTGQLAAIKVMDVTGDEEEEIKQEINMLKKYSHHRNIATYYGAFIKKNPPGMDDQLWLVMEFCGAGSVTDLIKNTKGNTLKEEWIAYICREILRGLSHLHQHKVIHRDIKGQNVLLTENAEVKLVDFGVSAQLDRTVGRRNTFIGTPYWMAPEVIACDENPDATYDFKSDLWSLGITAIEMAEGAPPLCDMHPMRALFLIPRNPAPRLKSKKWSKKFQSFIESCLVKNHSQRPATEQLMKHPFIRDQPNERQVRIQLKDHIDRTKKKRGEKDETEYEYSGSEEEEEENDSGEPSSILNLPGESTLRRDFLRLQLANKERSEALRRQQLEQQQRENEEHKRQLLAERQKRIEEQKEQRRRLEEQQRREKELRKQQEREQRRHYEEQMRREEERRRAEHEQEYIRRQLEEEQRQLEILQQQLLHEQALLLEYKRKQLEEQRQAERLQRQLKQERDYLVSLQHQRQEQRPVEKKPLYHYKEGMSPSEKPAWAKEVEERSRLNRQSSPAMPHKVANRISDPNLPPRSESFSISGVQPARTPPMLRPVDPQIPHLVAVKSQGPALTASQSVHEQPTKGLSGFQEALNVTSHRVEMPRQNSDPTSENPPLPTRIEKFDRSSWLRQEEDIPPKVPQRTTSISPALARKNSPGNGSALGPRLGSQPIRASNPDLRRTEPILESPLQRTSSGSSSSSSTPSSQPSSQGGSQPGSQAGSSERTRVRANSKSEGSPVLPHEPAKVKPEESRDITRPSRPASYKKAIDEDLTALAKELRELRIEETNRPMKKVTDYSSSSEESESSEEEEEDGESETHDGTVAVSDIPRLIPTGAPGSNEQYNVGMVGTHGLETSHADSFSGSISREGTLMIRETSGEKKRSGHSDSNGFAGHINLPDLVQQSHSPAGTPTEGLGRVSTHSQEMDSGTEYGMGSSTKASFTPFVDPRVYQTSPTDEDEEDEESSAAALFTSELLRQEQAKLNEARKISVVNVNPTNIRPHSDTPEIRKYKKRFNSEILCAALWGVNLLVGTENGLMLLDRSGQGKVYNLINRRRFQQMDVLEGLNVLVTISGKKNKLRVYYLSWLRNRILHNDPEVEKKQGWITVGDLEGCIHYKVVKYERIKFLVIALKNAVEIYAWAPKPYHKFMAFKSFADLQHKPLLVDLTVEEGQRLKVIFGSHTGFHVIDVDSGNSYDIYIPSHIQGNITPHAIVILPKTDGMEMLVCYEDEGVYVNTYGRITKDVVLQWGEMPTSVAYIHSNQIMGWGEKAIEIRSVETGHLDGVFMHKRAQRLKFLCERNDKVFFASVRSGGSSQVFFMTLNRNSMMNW

[7] = target: Serine/threonine-protein kinase 26 (Homo sapiens) (UniProt Q9P289); remark: listed apart in the source
[8] = target: Dual specificity mitogen-activated protein kinase kinase 2 (Homo sapiens, UniProt P36507)
Sequence of Dual specificity mitogen-activated protein kinase kinase 2 (P36507 whole entry): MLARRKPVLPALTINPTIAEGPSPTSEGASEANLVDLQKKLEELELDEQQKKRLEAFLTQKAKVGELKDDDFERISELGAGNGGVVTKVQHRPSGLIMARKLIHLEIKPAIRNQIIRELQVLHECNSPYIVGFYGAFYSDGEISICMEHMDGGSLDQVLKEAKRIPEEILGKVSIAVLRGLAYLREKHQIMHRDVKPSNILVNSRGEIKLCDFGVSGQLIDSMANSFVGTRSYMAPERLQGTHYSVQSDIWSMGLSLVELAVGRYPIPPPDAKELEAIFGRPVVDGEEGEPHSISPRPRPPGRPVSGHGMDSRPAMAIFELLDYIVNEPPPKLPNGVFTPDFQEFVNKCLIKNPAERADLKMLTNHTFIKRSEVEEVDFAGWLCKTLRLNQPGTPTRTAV

[9] = target: Calcium/calmodulin-dependent protein kinase type II subunit gamma (Homo sapiens) (UniProt Q13555)
Sequence of Calcium/calmodulin-dependent protein kinase type II subunit gamma (Homo sapiens) (Q13555 whole entry): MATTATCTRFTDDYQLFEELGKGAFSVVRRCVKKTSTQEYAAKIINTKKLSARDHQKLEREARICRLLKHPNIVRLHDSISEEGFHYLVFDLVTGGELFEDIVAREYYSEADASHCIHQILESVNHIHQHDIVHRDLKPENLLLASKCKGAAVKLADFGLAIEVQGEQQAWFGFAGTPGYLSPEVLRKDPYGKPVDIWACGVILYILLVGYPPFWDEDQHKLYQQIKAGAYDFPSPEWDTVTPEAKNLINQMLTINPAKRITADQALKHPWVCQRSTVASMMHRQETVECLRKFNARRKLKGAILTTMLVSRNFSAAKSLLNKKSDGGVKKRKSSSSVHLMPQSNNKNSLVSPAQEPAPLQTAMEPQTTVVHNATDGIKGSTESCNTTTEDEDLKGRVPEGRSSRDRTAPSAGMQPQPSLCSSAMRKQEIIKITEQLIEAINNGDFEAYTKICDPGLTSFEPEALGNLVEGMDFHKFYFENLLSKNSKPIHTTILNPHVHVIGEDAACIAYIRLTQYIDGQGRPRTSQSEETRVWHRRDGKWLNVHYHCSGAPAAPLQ

[10] = target: Dual specificity protein kinase CLK1 (Homo sapiens) (UniProt P49759)
Sequence of Dual specificity protein kinase CLK1 (Homo sapiens) (P49759 whole entry, looked up): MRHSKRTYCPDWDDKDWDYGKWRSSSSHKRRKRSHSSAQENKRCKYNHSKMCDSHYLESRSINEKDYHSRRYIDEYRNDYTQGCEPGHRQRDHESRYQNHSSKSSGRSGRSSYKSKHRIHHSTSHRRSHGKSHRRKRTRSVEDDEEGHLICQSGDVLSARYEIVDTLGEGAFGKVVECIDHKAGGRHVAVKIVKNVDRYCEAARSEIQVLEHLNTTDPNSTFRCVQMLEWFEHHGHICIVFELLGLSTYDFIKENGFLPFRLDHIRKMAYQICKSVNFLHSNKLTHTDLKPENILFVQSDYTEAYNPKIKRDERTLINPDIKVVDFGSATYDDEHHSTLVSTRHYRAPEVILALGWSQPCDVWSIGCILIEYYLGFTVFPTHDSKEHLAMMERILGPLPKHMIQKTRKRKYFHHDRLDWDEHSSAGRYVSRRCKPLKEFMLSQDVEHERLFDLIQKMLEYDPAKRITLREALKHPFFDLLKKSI

[11] = target: Serine/threonine-protein kinase PLK1 (Homo sapiens) (UniProt P53350)
[12] = target: T1, Mitogen-activated protein kinase kinase kinase 5 (Homo sapiens) (UniProt Q99683)
T1 sequence (whole entry): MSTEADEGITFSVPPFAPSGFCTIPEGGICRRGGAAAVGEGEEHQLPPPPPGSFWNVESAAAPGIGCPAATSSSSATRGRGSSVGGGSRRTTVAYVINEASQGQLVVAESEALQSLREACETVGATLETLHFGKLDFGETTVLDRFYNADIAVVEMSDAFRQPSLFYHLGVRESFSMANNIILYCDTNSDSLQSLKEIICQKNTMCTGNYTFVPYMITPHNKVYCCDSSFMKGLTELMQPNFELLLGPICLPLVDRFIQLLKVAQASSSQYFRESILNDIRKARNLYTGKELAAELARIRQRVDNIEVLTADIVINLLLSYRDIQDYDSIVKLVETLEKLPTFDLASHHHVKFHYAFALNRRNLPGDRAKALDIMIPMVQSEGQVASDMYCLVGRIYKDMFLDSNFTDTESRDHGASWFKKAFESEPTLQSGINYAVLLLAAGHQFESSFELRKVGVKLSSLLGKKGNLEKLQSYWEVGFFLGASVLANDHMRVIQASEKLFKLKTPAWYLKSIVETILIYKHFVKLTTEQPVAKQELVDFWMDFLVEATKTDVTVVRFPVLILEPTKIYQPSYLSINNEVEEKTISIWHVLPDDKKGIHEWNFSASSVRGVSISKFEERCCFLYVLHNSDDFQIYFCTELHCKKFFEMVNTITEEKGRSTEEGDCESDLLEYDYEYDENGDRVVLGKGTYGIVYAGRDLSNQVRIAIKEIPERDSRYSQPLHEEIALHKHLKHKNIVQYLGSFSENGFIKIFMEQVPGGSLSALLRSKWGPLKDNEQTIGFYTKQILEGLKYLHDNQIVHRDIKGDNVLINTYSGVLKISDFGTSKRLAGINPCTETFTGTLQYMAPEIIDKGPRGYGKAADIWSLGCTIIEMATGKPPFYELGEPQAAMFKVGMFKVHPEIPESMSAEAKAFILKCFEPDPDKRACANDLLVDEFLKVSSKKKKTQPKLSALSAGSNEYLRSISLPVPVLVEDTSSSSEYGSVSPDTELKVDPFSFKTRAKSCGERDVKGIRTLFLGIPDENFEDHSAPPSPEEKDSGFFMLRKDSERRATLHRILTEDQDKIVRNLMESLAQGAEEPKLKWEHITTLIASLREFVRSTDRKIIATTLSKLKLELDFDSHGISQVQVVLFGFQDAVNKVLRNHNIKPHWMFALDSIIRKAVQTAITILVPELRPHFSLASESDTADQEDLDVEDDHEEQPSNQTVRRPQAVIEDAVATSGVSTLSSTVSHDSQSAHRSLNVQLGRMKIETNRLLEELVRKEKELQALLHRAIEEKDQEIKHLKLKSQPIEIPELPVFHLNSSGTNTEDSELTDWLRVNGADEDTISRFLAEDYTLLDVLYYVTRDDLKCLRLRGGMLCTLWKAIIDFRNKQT

[13] = target: Serine/threonine-protein kinase 25 (Homo sapiens) (UniProt O00506)
[14] = target: Cyclin-dependent kinase-like 1 (Homo sapiens) (UniProt Q00532)
Sequence of Cyclin-dependent kinase-like 1 (Homo sapiens) (Q00532 whole entry): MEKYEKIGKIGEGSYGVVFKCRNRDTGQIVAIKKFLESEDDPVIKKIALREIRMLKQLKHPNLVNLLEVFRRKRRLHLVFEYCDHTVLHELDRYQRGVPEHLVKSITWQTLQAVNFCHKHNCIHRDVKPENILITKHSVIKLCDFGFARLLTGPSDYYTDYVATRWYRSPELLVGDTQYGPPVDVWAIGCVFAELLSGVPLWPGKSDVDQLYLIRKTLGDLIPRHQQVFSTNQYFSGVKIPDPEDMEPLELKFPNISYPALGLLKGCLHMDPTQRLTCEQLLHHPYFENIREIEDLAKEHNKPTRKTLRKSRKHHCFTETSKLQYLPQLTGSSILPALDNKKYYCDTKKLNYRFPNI

[15] = target: Cyclin-dependent kinase 2 (Homo sapiens, UniProt P24941)
[16] = target: Casein kinase I isoform gamma-2 (Homo sapiens) (UniProt P78368)
[17] = target: Calcium/calmodulin-dependent protein kinase type II subunit alpha (Homo sapiens) (UniProt Q9UQM7)
[18] = target: Serine/threonine-protein kinase PAK 6 (Homo sapiens) (UniProt Q9NQU5)
[19] = target: T2, Serine/threonine-protein kinase Nek2 (Homo sapiens) (UniProt P51955)
T2 sequence (whole entry): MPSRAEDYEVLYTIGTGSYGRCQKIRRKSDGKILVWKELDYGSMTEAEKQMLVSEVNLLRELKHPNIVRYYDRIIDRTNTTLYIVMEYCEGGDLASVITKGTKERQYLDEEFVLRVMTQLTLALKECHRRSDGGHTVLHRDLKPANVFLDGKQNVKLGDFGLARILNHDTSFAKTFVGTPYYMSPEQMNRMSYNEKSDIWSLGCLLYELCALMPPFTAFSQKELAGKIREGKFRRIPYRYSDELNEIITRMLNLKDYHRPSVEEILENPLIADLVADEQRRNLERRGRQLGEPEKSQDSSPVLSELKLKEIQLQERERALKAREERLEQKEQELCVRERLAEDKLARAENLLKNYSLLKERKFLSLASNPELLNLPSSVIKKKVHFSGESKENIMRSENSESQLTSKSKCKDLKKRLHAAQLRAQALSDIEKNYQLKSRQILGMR

Sequence of Serine/threonine-protein kinase 26 (Homo sapiens) (Q9P289 2-416 limits assumed): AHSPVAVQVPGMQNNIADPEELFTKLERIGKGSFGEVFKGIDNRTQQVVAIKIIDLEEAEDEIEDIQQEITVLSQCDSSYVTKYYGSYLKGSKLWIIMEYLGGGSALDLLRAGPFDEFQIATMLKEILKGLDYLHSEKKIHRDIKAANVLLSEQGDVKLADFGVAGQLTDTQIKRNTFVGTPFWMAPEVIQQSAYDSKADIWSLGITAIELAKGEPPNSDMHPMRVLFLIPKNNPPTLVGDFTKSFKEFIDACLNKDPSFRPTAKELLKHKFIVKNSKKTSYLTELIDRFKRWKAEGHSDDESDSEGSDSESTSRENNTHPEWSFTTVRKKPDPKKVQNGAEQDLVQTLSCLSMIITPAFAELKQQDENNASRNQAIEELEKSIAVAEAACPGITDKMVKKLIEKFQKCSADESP
Sequence of Calcium/calmodulin-dependent protein kinase type II subunit delta (Homo sapiens) (Q13557 whole entry): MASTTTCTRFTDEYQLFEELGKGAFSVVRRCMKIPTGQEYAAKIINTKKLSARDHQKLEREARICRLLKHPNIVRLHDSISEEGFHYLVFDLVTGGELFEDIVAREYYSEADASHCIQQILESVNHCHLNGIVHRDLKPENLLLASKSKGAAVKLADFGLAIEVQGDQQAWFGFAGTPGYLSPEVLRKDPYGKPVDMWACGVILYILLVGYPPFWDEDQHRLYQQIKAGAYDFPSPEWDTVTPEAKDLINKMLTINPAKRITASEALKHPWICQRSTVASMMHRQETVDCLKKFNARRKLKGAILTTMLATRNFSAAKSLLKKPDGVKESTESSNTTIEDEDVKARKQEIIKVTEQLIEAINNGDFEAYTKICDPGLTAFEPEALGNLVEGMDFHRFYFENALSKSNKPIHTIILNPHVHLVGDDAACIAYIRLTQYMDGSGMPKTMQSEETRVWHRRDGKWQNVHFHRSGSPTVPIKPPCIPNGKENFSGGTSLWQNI
Sequence of Glycogen synthase kinase-3 beta (P49841 whole entry, looked up): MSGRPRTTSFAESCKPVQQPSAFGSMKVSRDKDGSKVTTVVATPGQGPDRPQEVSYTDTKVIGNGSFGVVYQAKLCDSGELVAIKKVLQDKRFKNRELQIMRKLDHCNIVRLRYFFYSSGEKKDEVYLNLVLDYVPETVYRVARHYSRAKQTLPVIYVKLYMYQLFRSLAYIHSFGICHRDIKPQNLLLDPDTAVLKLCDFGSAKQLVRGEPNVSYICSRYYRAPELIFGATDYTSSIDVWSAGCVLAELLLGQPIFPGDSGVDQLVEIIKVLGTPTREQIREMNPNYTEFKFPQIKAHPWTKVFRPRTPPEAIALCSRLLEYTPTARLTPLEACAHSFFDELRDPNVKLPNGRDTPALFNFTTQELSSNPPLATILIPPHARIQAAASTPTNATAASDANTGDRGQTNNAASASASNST
Sequence of Serine/threonine-protein kinase pim-1 (Homo sapiens) (P11309 whole entry, looked up): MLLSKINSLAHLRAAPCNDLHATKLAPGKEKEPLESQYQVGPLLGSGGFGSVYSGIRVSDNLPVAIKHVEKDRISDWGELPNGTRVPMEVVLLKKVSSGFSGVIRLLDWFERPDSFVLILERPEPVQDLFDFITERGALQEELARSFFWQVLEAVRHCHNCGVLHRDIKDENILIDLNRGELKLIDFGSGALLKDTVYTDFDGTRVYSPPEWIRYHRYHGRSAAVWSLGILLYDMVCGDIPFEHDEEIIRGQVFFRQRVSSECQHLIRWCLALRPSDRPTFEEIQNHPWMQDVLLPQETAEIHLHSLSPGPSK

Cl.Cn1cc(C2=C(c3ccc4cc5n(c4c3)CCC(CN)C5)C(=O)NC2=O)c2ccccc21 (centres undefined)
ΔTm [1]: -0.5 °C
ΔTm [2]: 1.2 °C
ΔTm [3]: 6.7 °C
ΔTm [4]: 5.3 °C
ΔTm [5]: 6.3 °C
ΔTm [6]: 0.3 °C
ΔTm [7]: 0.3 °C
ΔTm [8]: 0.1 °C
ΔTm [9]: 1.1 °C
ΔTm [10]: 1 °C
ΔTm [11]: 0.1 °C
ΔTm [12]: 0 °C
ΔTm [13]: 0.7 °C
ΔTm [14]: 0.2 °C
ΔTm [15]: 2.4 °C
ΔTm [16]: 0.4 °C
ΔTm [17]: 1.4 °C
ΔTm [18]: 0.7 °C
ΔTm [19]: 1.1 °C
